Laboratory results: patent publication US6559100B1, “2-benzoyl-cyclohexane-1,3-diones” (BASF Aktiengesellschaft, priority 1997, dated 2003)

Legend:
Experiment in all cases: Greenhouse herbicidal activity, post-emergence treatment
Details in all cases: 0.5 or 0.25 kg/ha of a.s.
[1] = tested on: Setaria viridis; type: in vivo, Setaria viridis (green foxtail)
Source text: (§1) The culture containers used were plastic pots containing loamy sand with approximately 3.0% of humus as the substrate. The seeds of the test plants were sown separately for each species.
(§2) For the post-emergence treatment, the test plants were first grown to a height of 3 to 15 cm, depending on the plant habit, and only then treated with the active compounds which had been emulsified or suspended in water. The test plants were for this purpose either sown directly and grown in the same containers, or they were first grown separately as seedlings and transplanted into the test containers a few days prior to treatment. The application rate for the post-emergence treatment was 0.5 or 0.25 kg/ha of a.s.
(§3) Depending on the species, the plants were kept at 10-25° C. or 20-35° C. . The test period extended over 2 to 4 weeks. During this time, the plants were tended, and their response to the individual treatments was evaluated.
(§4) The evaluation was carried out using a scale from 0 to 100. 100 means no emergence of the plants, or complete destruction of at least the aerial parts, and 0 means no damage, or normal course of growth.
(§5) The plants used in the greenhouse trials were from the following species:
(§6) Herbicidal activity when employed by the post-emergence method (greenhouse) [drawing 20]

[2] = tested on: Chenopodium album; type: in vivo, Chenopodium album (lambsquarters, goosefoot)
Source text: as §1, §2, §3, §4, §5, §6

[3] = tested on: Sinapis alba; type: in vivo, Sinapis alba (white mustard)
Source text: as §1, §2, §3, §4, §5, §6

[4] = tested on: Solanum nigrum; type: in vivo, Solanum nigrum (black nightshade)
Source text: as §1, §2, §3, §4, §5, §6

Measured: control of the weed (herbicidal activity)

CC1(C)C(=O)C(C(=O)c2ccc(Cl)c(CC3=NOCC3)c2Cl)=C(O)C(C)(C)C1=O [Compound 37.2, 2,4-Dichloro-3-((4,5-dihydro-3-isoxazolylmethyl)phenyl)(3,3,6,6-tetramethylcyclohexane-1,3,5-trione)methanone]
very efficient control: all assays above
